The values that follow come from article PMC6419571, “Discovery and lead optimisation of a potent, selective and orally bioavailable RARβ agonist for the potential treatment of nerve injury” (Bioorganic & Medicinal Chemistry Letters, 2019).

Series [1] has as its target T1, RARβ (Homo sapiens, UniProt P10826).
T1 construct: expressed in transfected cells
T1 sequence (P10826 183-417 limits assumed): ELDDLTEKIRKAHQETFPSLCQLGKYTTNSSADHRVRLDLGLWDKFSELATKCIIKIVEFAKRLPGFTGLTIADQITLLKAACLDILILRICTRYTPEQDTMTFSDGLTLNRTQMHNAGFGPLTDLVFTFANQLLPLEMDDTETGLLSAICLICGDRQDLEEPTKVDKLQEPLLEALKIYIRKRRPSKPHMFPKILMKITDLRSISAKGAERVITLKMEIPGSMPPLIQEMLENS
Briefly: Transactivation against the human RAR ligand-binding domains. The class given is cell-based. From the text: The more drug-like template present in 10 translates into a good in vitro and in vivo profile for this RARβ agonist (Table 5).

Series [2] in a line: Solubility. The class given is physicochemical. As to conditions: pH 7.4, as the amorphous sodium salt.
Series [3] can be described thus: Bi-directional permeability in MDR1-MDCK cell line. The class given is in vitro ADME. As to conditions: dog; MDR1-MDCK cell line. From the text:
(§1) The potential drug candidate 10 has excellent physico-chemical properties.

Series [4] has as its system MDR1-MDCK cell line. The series is described as follows: Bi-directional permeability in MDR1-MDCK cell line. The class given is in vitro ADME.
Description: as §1

Series [5] relates to P-gp (MDR1). Briefly: Bi-directional permeability in MDR1-MDCK cell line. The class given is in vitro ADME. As to conditions: dog; MDR1-MDCK cell line, bi-directional; read-out: MDCK asymmetry ratio (efflux ratio).
Description: as §1

Series [6] has as its target T2, Cyp450 1A2 (Homo sapiens, UniProt P05177).
T2 sequence (P05177 1-516): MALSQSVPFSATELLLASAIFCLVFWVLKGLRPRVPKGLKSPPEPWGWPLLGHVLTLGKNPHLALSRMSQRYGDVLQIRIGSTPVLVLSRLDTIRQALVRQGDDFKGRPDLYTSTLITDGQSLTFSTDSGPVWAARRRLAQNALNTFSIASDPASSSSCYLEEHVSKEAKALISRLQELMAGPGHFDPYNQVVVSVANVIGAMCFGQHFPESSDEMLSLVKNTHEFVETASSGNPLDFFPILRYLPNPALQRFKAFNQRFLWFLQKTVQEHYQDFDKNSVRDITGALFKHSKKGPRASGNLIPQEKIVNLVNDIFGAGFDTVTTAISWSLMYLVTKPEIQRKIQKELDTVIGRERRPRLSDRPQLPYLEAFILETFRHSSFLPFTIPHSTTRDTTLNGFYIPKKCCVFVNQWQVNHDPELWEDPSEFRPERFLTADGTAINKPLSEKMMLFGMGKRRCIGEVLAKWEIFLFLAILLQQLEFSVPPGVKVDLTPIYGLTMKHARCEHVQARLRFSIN
The series is described as follows: Cyp450 inhibition, 1A2. As to conditions: isoform 1A2. Format: in vitro ADME.

For series [7], the target named is Cyp450 2C9 (Homo sapiens, UniProt P11712). The series is described as follows: Cyp450 inhibition, 2C9. The class given is in vitro ADME. As to conditions: isoform 2C9.
Cyp450 2C9, sequence (P11712 whole entry, canonical isoform): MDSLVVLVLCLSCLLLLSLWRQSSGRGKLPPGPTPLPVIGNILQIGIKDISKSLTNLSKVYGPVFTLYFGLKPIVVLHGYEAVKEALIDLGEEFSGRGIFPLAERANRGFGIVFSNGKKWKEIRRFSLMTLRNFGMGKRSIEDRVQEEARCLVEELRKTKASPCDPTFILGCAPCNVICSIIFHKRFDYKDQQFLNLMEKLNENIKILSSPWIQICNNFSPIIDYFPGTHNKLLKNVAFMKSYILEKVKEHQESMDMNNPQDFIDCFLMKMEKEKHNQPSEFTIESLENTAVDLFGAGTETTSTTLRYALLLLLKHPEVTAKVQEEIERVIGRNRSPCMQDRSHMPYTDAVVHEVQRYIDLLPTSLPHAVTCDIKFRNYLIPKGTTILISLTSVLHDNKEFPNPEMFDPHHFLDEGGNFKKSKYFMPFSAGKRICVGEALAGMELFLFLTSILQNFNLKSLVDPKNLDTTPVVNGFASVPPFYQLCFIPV
A short description of series [8]: Mouse plasma protein binding. The class given is in vitro ADME.
The target in series [9] is HERG channels (Homo sapiens, UniProt Q12809). Briefly: Binding assay for HERG channels. As to conditions: at 10 μM.
HERG channels, sequence (Q12809 whole entry): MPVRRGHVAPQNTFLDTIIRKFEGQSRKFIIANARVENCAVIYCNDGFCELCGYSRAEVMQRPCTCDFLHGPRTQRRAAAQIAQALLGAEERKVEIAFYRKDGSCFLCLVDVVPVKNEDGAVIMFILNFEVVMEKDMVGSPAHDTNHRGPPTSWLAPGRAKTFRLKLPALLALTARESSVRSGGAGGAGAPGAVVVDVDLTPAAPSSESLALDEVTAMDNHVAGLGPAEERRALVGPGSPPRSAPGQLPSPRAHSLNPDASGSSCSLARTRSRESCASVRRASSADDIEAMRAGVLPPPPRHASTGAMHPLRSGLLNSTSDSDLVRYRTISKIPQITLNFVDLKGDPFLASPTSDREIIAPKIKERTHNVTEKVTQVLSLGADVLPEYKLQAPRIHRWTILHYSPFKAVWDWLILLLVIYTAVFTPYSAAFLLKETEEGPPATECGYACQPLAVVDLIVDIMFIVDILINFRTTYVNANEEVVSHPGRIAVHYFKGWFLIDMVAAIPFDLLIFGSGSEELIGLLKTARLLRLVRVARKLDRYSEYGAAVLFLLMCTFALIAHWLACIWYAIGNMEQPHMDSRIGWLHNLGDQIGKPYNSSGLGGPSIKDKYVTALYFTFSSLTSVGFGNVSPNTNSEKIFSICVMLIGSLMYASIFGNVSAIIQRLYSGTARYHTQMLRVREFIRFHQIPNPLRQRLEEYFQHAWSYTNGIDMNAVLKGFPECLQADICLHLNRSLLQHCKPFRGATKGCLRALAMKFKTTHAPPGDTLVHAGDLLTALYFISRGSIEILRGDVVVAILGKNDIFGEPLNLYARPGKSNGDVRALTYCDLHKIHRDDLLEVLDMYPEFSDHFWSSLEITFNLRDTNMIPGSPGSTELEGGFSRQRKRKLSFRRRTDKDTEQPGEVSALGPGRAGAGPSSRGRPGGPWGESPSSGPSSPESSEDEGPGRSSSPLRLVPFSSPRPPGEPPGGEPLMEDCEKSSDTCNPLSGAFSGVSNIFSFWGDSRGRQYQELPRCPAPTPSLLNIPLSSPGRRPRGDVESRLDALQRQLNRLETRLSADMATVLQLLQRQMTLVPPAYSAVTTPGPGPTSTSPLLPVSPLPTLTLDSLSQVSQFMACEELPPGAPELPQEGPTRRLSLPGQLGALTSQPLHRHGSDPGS
For series [10], the system named is three bacterial strains. The class given is cell-based.
The test system of series [11] is CHO-K1 cells. The series is described as follows: In vitro micronucleus test. The class given is cell-based. As to conditions: presence and absence of S9. From the text:
Similar, negative results were obtained in an in vitro micronucleus test in CHO-K1 cells, in both the presence and absence of S9.

`Cc1ccc(C)c2oc(-c3nc(-c4ccc(C(=O)O)cc4)no3)cc12` [Compound 10, 4-(5-(4,7-dimethylbenzofuran-2-yl)-1,2,4-oxadiazol-3-yl)benzoic acid]: in series [1], the “fold selectivity for RARβ over RARα” value is on record as 23 fold and the “fold selectivity for RARβ over RARγ” value turned out to be 5 fold. Moreover, the concentration giving a half-maximal response (EC50) in [1] (read-out: RARβ potency EC50) was 0.00205 µM. In [2], the solubility is > 100 µM. In series [3], the Papp came to 28 ×10⁻⁶ cm/s. Moreover, in series [4], the “permeability (in words)” value is listed as “good permeability”. In addition, the “MDCK asymmetry ratio (efflux ratio)” value in [4] (MDR1-MDCK cell line, bi-directional) is on record as “close to unity”. Besides, the efflux ratio in series [5] amounted to 0.8. Moreover, in [6], the IC50 was > 25 µM. Also, the IC50 in series [7] was > 25 µM. The same compound gave a fraction unbound in series [8] of 0.05. In addition, the “HERG channel binding inhibition” value in series [9] is listed as “no inhibition”. In addition, the Ames test result in [10] was “inactive”. In addition, the “in vitro micronucleus test result” value in series [11] is “negative”.

For orientation: EC50 means the midpoint of the concentration-response curve. As a reminder, the solubility is the dissolved amount per volume that the medium holds. In general, Papp refers to the rate of passage across a membrane or cell layer, normalised by area and donor concentration. Lower therefore signals slow passage. What is called IC50 is the concentration that inhibits the measured activity by half. By fraction unbound is commonly meant the share of the substance not bound to proteins or other matrix. A higher fraction unbound goes with much free substance.
